Experimental data as given in patent US6407083B1, “Uses of novel organoselenium compounds with pro-oxidant activity” (Oxis International, Inc., priority 1996, dated 2002).

Tests used:
[1] = test system: MCF-7 cells from a breast cancer of human origin; assay: Cytotoxicity on MCF-7 cells (MTT viability test); assay type: cell-based; conditions: for mortality at 0.195 µM: MCF7, 0.195 μM; for mortality at 0.391 µM: MCF7, 0.391 μM; for mortality at 0.781 µM: MCF7, 0.781 μM; for mortality at 1.562 µM: MCF7, 1.562 μM; for mortality at 3.125 µM: MCF7, 3.125 μM; for mortality at 6.25 µM: MCF7, 6.25 μM; for mortality at 12.5 µM: MCF7, 12.5 μM; for mortality at 25 µM: MCF7, 25 μM; for mortality at 50 µM: MCF7, 50 μM
Method: The MCF-7 cells from a breast cancer of human origin are cultivated, in an atmosphere of a gaseous mixture of 95% air and 5% CO2, saturated with water, two days before the test, in order to be in a growth phase during the toxicity test. The cells are trypsinized and are collected in a RPMI 1640 medium containing 10% FCS, 10 mM HEPES, 1 mM pyruvate, 4 mM L-glutamine, 100 U/ml penicillin, 100 μg/ml streptomycin, in order to be centrifuged at 1,500 rpm for 10 minutes. The cell pellet is resuspended in the same medium in order to obtain a cell density of 30,000 cells/cm^2.
The compounds of general structure IA described in the present invention are solubilised at 10 mM in absolute ethanol and diluted in RPMI-10% FCS culture medium, the final volume of ethanol in the reaction medium is 0.5% (v/v). The molecules are studied at the following concentrations: 50; 25; 12.5; 6.25; 3.125; 1.562; 0.781; 0.391 and 0.195 μM. Two controls are carried out, in the presence and in the absence of ethanol respectively, using 100 μl of cell suspension of 30,000 cells/cm^2 incubated with 100 μl of RPMI-10% FCS medium and ±0.5% of ethanol (v/v).
Before starting the study, the cells are rinsed with PBS buffer which contains neither calcium nor magnesium. The cells are then incubated with 200 μl of compound under test, or with the medium containing or not 0.5% of ethanol (controls) for either 24 or 48 hours under an atmosphere of a gaseous mixture of 95% air and 5% CO2, saturated with water, at 37° C., then submitted to the viability test with MTT according to the following protocol.
To 200 μl of culture medium are added 50 μl of MTT at 5 mg/ml in PBS buffer. After 4 hours of incubation at 37° C., the plate is centrifuged for 10 minutes at 3,000 rpm. The supernatant is removed and the cell pellet is resuspended in 100 μl of DMSO. This is left to incubate for 10 minutes with stirring at 37° C. The coloration developed is measured at 550 nm against DMSO. The optical density OD=f(living cells) can then be plotted as a function of time.

[2] = test system: NADPH in the presence of glutathione (GSH) and glutathione disulfide reductase; assay: Glutathione oxidase activity (consumption of NADPH in the presence of GSH and glutathione disulfide reductase); assay type: biochemical; conditions: pH 7.3, 37° C.
Method: To 1.5 ml of 50 mM HEPES buffer, pH 7.3, containing 2.47 mM of reduced glutathione (GSH), 0.32 mM of nicotinamide adenine dinucleotide phosphate (NADPH), and 1.23 units/ml of glutathione disulfide reductase (GR), at 37° C., are added, in the following order:
320 μl of 50 mM HEPES buffer, pH 7.3, containing 0.1 mM of DTPA, pre-equilibrated at 37° C.
30 μl of a 5 mM ethanolic mother-solution of the compound under test or 30 μl of absolute ethanol (blank). Each compound is tested at a final concentration of 81 μM.
The final reaction volume is 1850 μl.
The glutathione oxidase activity is assayed at 37° C. by measuring the reduction in absorbance at 340 nm over 5 minutes. The said initial enzymatic rate or activity is proportional to the slope of the plot of absorbance against time.
The catalytic activity for oxygen reduction in the compounds under test corresponds to the rate of consumption of NADPH.
Furthermore, the effects of superoxide dismutase (SOD), catalase, iodoacetamide (IAA) and Se-GPx on the glutathione oxidase activity of the tested compounds have been studied.
the necessary and sufficient quantity, variable according to the case, of 50 mM HEPES, pH 7.3, containing 0.1 mM of DTPA, pre-equilibrated at 37° C.; the final reaction volume being 1850 μl.
either 100 μl of a solution of 1850 units/ml of SOD in water of ultrapure quality,
or 100 μl of a solution of 1850 units/ml of catalase in water of ultrapure quality and 100 μl of a solution of 1850 units/ml of SOD in water of ultrapure quality,
or 150 μl of a 6.2 mM solution of iodoacetamide in 50 mM HEPES buffer, pH 7.3, containing 0.1 mM DTPA,
or 100 μl of a solution of 10 units/ml of glutathione peroxidase Se-GPx in 50 mM HEPES buffer, pH 7.3, containing 0.1 mM of DTPA,
or 100 μl of a solution of 1850 units/ml of SOD in water of ultrapure quality, and 100 μl of a solution of 10 units/ml of glutathione peroxidase Se-GPx in 50 mM HEPES buffer, pH 7.3, containing 0.1 mM of DTPA.
30 μl of a 5 mM ethanolic mother-solution of the compound under test.
The glutathione oxidase activity is assayed at 37° C. by monitoring the decrease in the absorbance at 340 nm over 15 minutes. The said initial enzymatic rate or activity is proportional to the slope of the plot of absorbance against time.
The consumption of NADPH has been calculated from the slopes of the curves obtained (OD/minute): [formula]
Vt=total volume of the reaction =1850 μl
ε=molar extinction coefficient of NADPH=[…]. M^−1. cm^−1
They are expressed in nmoles of NADPH oxidized per minute.

Row | SMILES | melting point [°C] | mortality at 0.195 µM ([1]; 24 h) [%] | mortality at 0.195 µM ([1]; 48 h) [%] | mortality at 0.391 µM ([1]; 24 h) [%] | mortality at 0.391 µM ([1]; 48 h) [%] | mortality at 0.781 µM ([1]; 24 h) [%] | mortality at 0.781 µM ([1]; 48 h) [%] | mortality at 1.562 µM ([1]; 24 h) [%] | mortality at 1.562 µM ([1]; 48 h) [%] | mortality at 3.125 µM ([1]; 24 h) [%] | mortality at 3.125 µM ([1]; 48 h) [%] | mortality at 6.25 µM ([1]; 24 h) [%] | mortality at 6.25 µM ([1]; 48 h) [%] | mortality at 12.5 µM ([1]; 24 h) [%] | mortality at 12.5 µM ([1]; 48 h) [%] | mortality at 25 µM ([1]; 24 h) [%] | mortality at 25 µM ([1]; 48 h) [%] | mortality at 50 µM ([1]; 24 h) [%] | mortality at 50 µM ([1]; 48 h) [%] | also measured
1 | CC12CCC3c4ccc(O)cc4CC(CCCCCCCCN4[Se]c5c([N+](=O)[O-])cccc5C4(C)C)C3C1CCC2O (stereo not shown) | 95 |  |  |  |  |  |  |  |  |  |  |  |  |  |  |  |  |  |  | 
2 | CC1(C)c2cccc([N+](=O)[O-])c2[Se]N1CCO [Bxt-57001, N-(2-hydroxyethyl)-3,3-dimethyl-7-nitrobenzisoselenazoline] |  | 0 | 0 | 0 | 0 | 16.9 | 0 | 29.4 | 20 | 23.9 | 23.3 | 55 | 41.2 | 75.3 | 58.5 | 99.1 | 99.8 | 99.8 | 100 | 
3 | CC/C(=C(\c1ccccc1)c1ccc(OCCN2[Se]c3c([N+](=O)[O-])cccc3C2(C)C)cc1)c1ccccc1 [Bxt-57007, N-{2-[4-(1,2-diphenylbut-1-en-1-yl)phenoxy]ethyl}3,3-dimethyl-7-nitrobenzisoselenazoline] |  | 0 | 1.07 | 1.02 | 8.42 | 8.39 | 14.2 | 12.9 | 25.1 | 13.3 | 18.7 | 19.4 | 33.2 | 28.6 | 44.6 | 36.6 | 46.8 | 40.8 | 46.3 | 
4 | CC(=O)N1[Se]c2c([N+](=O)[O-])cccc2C1(C)C [Bxt-57004, N-acetyl-3,3-dimethyl-7-nitrobenzisoselenazoline] |  | 0 | 17.4 | 3.19 | 12.8 | 34.9 | 38.6 | 59.4 | 60.5 | 71.2 | 69.1 | 73.3 | 76.4 | 79.8 | 75.8 | 92.8 | 88.4 | 100 | 100 | 
5 | CC12CCC3c4ccc(O)cc4CC(CCCCCCCC(=O)N4[Se]c5c([N+](=O)[O-])cccc5C4(C)C)C3C1CCC2O (stereo not shown) | 128 |  |  |  |  |  |  |  |  |  |  |  |  |  |  |  |  |  |  | 
6 | CC1(C)N[Se]c2c([N+](=O)[O-])cccc21 [Bxt-51062, 3,3-Dimethyl-7-nitrobenzisoselenazoline] |  | 0 | 2.22 | 0 | 0 | 23.6 | 32.5 | 42.7 | 58.5 | 70.1 | 83 | 100 | 100 | 100 | 100 | 100 | 100 | 100 | 100 | GSH oxidase activity, nmole NADPH oxidized/min ([2]; compound + GSH + GR-NADPH + SOD and CAT): 79.29 nmole NADPH oxidized/min; GSH oxidase activity, nmole NADPH oxidized/min ([2]; compound + GSH + GR-NADPH + SOD): 78.78 nmole NADPH oxidized/min; GSH oxidase activity, nmole NADPH oxidized/min ([2]; compound + GSH + GR-NADPH + Se-GPx and SOD): 78.45 nmole NADPH oxidized/min; GSH oxidase activity, nmole NADPH oxidized/min ([2]; compound + GSH + GR-NADPH + Se-GPx): 80.61 nmole NADPH oxidized/min; GSH oxidase activity, nmole NADPH oxidized/min ([2]; compound + GSH + GR-NADPH ± IAA (iodoacetamide)): 76.25 nmole NADPH oxidized/min; GSH oxidase activity, nmole NADPH oxidized/min ([2]; compound + GSH + GR-NADPH, no further effector): 77.17 nmole NADPH oxidized/min
7 | CC(=O)N1CC(C)(C)c2cccc([N+](=O)[O-])c2[Se]1 | 127 |  |  |  |  |  |  |  |  |  |  |  |  |  |  |  |  |  |  | 
8 | CC1(C)CN[Se]c2c([N+](=O)[O-])cccc21 | 108 |  |  |  |  |  |  |  |  |  |  |  |  |  |  |  |  |  |  | 
